What was measured:
[1] = test system: Large crabgrass (Digitaria sanguinalis) F2; experiment: Large crabgrass dose response study, F2 from self-pollinated surviving plants; format: in vivo
Method: (§1) Plants were grown from seed collected from a turfgrass sod farm near where sethoxydim had been continuously used for twelve years. Seeds were planted in 250 mL styrofoam cups with a potting mixture of pure sand in a glasshouse with supplemental lighting (300 uE/m2/s) and 30/25 temperature. Plants were watered once daily and fertilized once a week. Large crabgrass plants were treated with herbicides when 3-5 cm tall in a dose response study. Four herbicides (sethoxydim, fluazifop, clethodim, and pinoxaden) were applied at […]. Plant injury was observed 7 and 14 DAT. The experimental design consisted of a randomized complete block design with three replications. The experiment was replicated in time.
In response to all four herbicides, the plants initially illutrated typical ACCase symptomology, but recovered in 7-14 days after treatment (DAT). […] Seeds from self-pollinated surviving large crabgrass plants were collected and analyzed using the same dose response design as state before. […] The ED50 was approximately 10 times greater for the resistant (R) population than that for the wild type (S) population.

[2] = test system: Large crabgrass (Digitaria sanguinalis); experiment: Large crabgrass dose response study, plants from sod farm seed; format: in vivo; settings: for resistance or susceptibility of this population of large crabgrass: conclusion from ED50 values; for effective dose required to cause 50% injury (ED50): large crabgrass grown from sod farm seed, treated when 3-5 cm tall
Method: as §1

Row | SMILES | effective dose required to cause 50% injury (ED50) [1] [g ai/ha] | resistance or susceptibility of this population of large crabgrass [2] | effective dose required to cause 50% injury (ED50) [2] [g ai/ha]
1 | CCSC(C)CC1CC(=O)C(/C(CC)=N/OC/C=C/Cl)=C(O)C1 (racemic) [clethodim, (E,E)-(±)-2-[1-[[(3-chloro-2-propenyl)oxy]imino]propyl]-5-[2-(ethylthio)propyl]-3-hydroxy-2-cyclohexen-1-one] | 28±22 | susceptible | 51±4
2 | CCc1cc(C)cc(CC)c1-c1c(OC(=O)C(C)(C)C)n2n(c1=O)CCOCC2 [pinoxaden] | 131±44 | resistant | 168±29

Source: patent US20110214196A1, “DEVELOPMENT OF HERBICIDE-RESISTANT GRASS SPECIES” (University of Georgia Research Foundation, priority 2008, published 2011)
